Data on one molecule can be found in patent US20220339135A1, “COMPOSITIONS AND METHODS FOR MODULATING AN INFLAMMATORY RESPONSE” (Enzychem Lifesciences Corporation, priority 2019, published 2022).

The test system of test [1] is RIPK1, RIPK3, MLKL in THP-1 cells. Nature of the test: MSU-induced phosphorylation of RIPK1, RIPK3, MLKL, western blot. The class given is cell-based, human. The procedure: (A) THP-1 cells were pre-incubated with PLAG (100 μg/mL) for an hour and then stimulated with MSU crystal (400 μg/mL). After 0, 7, 15, 30, 60 minutes, cells were harvested. (B) THP-1 cells were pre-incubated with PLAG (1, 10, 100 μg/mL) for 1 hour and then stimulated with MSU crystal (400 μg/mL). After 1 h, cells were harvested. THP-1 cells were lysis with 1×RIPA lysis buffer containing the protease inhibitor (Roche, Basel, Switzerland) and phosphatase inhibitor (Thermo Scientific, MA, USA) on ice for 30 min. The cell lysates were clarified by centrifugation (13,000 rpm, 4° C., 30 min), and the protein quantity from each sample was examined by Bradford assay (Bio-Rad). Proteins from each sample were separated by sodium dodecyl sulfate-polyacrylamide gel electrophoresis on 12% polyacrylamide gels and the proteins were blotted onto a PVDF membrane (Millipore Corporation, Germany). The membrane was blocked with 5% non-fat dried milk (BD bioscience) in PBS containing 0.05% Tween-20 (Calbiochem) for 1 hour. The membrane was incubated with anti-phospho-RIPK3 (abcam), RIPK3 (novusbio), p-MLKL (abcam), MLKL (Sigma), p-RIP (Cell Signaling Technology), RIPK1 (R&D System) and β-actin (Cell Signaling Technology) at 4° C. overnight. […] Target proteins were detected with Immobilon Western Chemiluminescent HRP Substrate (Millipore Corporation).
A general note: Immunoblotting shows a protein as a band on a membrane.

For test [2], the system named is chemo-radiation and PAK induced oral mucositis. Description: Chemo-radiation and PAK induced oral mucositis. Type of test: in vivo, mice. To be noted: PLAG 250 mg/kg oral daily, n=19. As to the method:
To induce immunocompromised condition in mice of CRIN group and EC-18 group, mice were administered by intraperitoneal injection with 30 mg/kg of 5-FU (Sigma) once a day for 3 days (Sigma) and five days after the experiment initiated, 1Gy of γ-radiation at once. For the EC-18 group, EC-18 (Enzychem Lifesciences, Daejeon, Republic of Korea) was orally given at a dose of 250 mg/kg once a day during the study period. The experimental schedule is described in FIG. 1. On day 6 after the experiment initiated, all the mice of 2 groups (CRIN group, and EC-18 group) were anesthetized with 2% 2, 2, 2,-tribromoethanol by intraperitoneal injection and infected with P. aeruginosa K (PAK) by syringe in the tongue. 1 day after PAK injection, the condition of the tongue and survival rate of mice were monitored and recorded.
P. aeruginosa K was cultured in LB broth or on LB agar plates overnight at 37° C. until they were in log-phase growth. […] The bacterial pellet was suspended to the appropriated number of colony-forming unit (CFU) per milliliter in PBS, as determined by optical density and plating out a serial dilution on broth agar plates. […]
Chemoradiotherapy induced immunocompromised mice were challenged with PAK. […] After the challenge, mice were monitored for 1 day, and the survival rate of mice was recorded.

For test [3], the system named is intracellular ROS in HaCaT cells. Nature of the test: IMQ-induced intracellular ROS. The class given is cell-based. The settings on record: IMQ/PLAG treated cells. The procedure: HaCaT cells were divided into two groups: 1) IMQ treated group and 2) IMQ/PLAG treated group. For IMQ treated group, cells were stimulated with IMQ (5 μg/ml) for 0, 2.5, 5, 7.5, 10, 15, 30, 60, 120 minutes. For IMQ/PLAG treated group, cells were pre-incubated with PLAG (100 μg/ml) for 1 hour and then stimulated with IMQ (5 μg/ml) for 0, 2.5, 5, 7.5, 10, 15, 30, 60, 120 minutes. (A) To detect ADORA2A on the membrane surface, cells were fixed with 2% paraformaldehyde (Sigma-Aldrich) and were blocked with PBS containing 1% BSA (Gibco, Waltham, Mass., USA). They were incubated with rabbit anti-ADORA2A antibody (Thermo) and Alexa488 conjugated anti-rabbit IgG (Invitrogen) without permeabilization. (B) To detect intracellular ROS, cells were treated with FITC conjugated-CM-H2DCFDA (Invitrogen, Carlsbad, Calif., USA) for 30 min before PLAG treating. For confocal microscopy analysis, cells were washed with PBS and mounted in DAPI-containing fluorescence microscopy mounting medium (Invitrogen). Samples were analyzed with a laser scanning confocal microscope (Carl Zeiss, Oberkochen, Germany).

As for `CCCCC/C=C\C/C=C\CCCCCCCC(=O)OC(COC(C)=O)COC(=O)CCCCCCCCCCCCCCC` (racemic) [PLAG, 1-palmitoyl-2-linoleoyl-3-acetylglycerol], the “MSU-induced phosphorylation of RIPK3 and MLKL” value in test [1] (PLAG 100 μg/mL, time course) is recorded as “accelerated”. In addition, the “MSU-induced phosphorylation of RIPK1 and RIPK3” value in test [1] (PLAG 1, 10, 100 μg/mL, dose-dependent) was “modulated”. In test [2], the “survival rate after 7 days” value amounted to 84%. Further, in test [3], the ROS formation starts was 2.5 min and the “ROS returns to homeostatic levels” value is 10 min.
